This is an account of results in patent US20210261553A1, “FUSED TETRAZOLES AS LRRK2 INHIBITORS” (E-SCAPE Bio, Inc., priority 2018, published 2021).

Assay [1] concerns the target T1, Recombinant wild type LRRK2 protein (Homo sapiens, UniProt Q5S007).
T1 construct: purchased Life Technologies PR8604B
The experiment in a line: LRRK2 kinase activity assay (LanthaScreen TR-FRET), wild type. In kind it is biochemical. The conditions noted are these: 400 nM LRRKtide, 25 μM ATP, 60 min at room temperature; read-out: LRRK2 WT IC50. As for the experimental part:
(§1) LRRK2 kinase activity was measured using a LanthaScreen™ Kinase Activity Assay from ThermoFisher Scientific. Recombinant wild type or G2019S-LRRK2 protein (Life Technologies, PR8604B or PV4881, respectively), was incubated with a fluorescein-labeled peptide substrate called LRRKtide that is based upon ezrin/radixin/moesin (ERM) (Life Technologies, PV4901) in the presence of ATP and serially diluted compound. After an incubation period of 1 hr, the phosphotransferase activity was stopped and a terbium-labelled anti-pERM antibody (Life Technologies, PV4899) was added to detect the phosphorylation of LRRKtide by measuring the time resolved-Forster resonant energy transfer (TR-FRET) signal from the terbium label on the antibody to the fluorescein tag on LRRKtide, expressed as the 520 nm/495 nm emission ratio. Compound-dependent inhibition of the TR-FRET signal was used to generate a concentration-response curve for IC50 determination.
(§2) The assay was carried out under the following protocol conditions: 1 mM compound in DMSO was serially diluted 1:3, 11 points in DMSO with a Biomek FX and 0.1 μL of the diluted compound was subsequently stamped into the assay plate (384-well format Lumitrac 200, Greiner, 781075) with an Echo Labcyte such that the final compound concentration in the assay was 10 μM to […]. Subsequently, 5 μL of 2× kinase solution (2.9 nM final concentration) was added to the assay plate in assay buffer composed of 50 mM Tris pH 8.5 (Sigma, T6791), 5 mM MgCl2 (Fluka, 63020), 1 mM EGTA (Sigma, E3889), 0.01% BRU-35 (Sigma, P1254) and 2 mM DTT. The reaction was started by addition of 2×ATP/LRRKtide solution in assay buffer such that the final concentration was 400 nM LRRKtide and 25 μM ATP. After 60 min incubation at room temperature, the reaction was stopped by addition of […] containing a final concentration of 2 nM anti-pERM antibody and […]. After a 30 min incubation at RT, the TR-FRET signal was measured on a Wallac 2104 EnVision® multilabel reader at an excitation wavelength of 340 nm and reading emission at 520 nm and 495 nm. The ratio of the 520 nm and 495 nm emission was used to analyze the data.

Assay [2] concerns the target T2, Recombinant G2019S-LRRK2 protein (Homo sapiens, UniProt Q5S007, G2019S).
T2 construct: purchased Life Technologies PV4881
The experiment in a line: LRRK2 kinase activity assay (LanthaScreen TR-FRET), G2019S mutant. The conditions noted are these: 400 nM LRRKtide, 25 μM ATP, 60 min at room temperature. It counts as biochemical. How it is done:
as §1, §2

T1 sequence (Q5S007 whole entry): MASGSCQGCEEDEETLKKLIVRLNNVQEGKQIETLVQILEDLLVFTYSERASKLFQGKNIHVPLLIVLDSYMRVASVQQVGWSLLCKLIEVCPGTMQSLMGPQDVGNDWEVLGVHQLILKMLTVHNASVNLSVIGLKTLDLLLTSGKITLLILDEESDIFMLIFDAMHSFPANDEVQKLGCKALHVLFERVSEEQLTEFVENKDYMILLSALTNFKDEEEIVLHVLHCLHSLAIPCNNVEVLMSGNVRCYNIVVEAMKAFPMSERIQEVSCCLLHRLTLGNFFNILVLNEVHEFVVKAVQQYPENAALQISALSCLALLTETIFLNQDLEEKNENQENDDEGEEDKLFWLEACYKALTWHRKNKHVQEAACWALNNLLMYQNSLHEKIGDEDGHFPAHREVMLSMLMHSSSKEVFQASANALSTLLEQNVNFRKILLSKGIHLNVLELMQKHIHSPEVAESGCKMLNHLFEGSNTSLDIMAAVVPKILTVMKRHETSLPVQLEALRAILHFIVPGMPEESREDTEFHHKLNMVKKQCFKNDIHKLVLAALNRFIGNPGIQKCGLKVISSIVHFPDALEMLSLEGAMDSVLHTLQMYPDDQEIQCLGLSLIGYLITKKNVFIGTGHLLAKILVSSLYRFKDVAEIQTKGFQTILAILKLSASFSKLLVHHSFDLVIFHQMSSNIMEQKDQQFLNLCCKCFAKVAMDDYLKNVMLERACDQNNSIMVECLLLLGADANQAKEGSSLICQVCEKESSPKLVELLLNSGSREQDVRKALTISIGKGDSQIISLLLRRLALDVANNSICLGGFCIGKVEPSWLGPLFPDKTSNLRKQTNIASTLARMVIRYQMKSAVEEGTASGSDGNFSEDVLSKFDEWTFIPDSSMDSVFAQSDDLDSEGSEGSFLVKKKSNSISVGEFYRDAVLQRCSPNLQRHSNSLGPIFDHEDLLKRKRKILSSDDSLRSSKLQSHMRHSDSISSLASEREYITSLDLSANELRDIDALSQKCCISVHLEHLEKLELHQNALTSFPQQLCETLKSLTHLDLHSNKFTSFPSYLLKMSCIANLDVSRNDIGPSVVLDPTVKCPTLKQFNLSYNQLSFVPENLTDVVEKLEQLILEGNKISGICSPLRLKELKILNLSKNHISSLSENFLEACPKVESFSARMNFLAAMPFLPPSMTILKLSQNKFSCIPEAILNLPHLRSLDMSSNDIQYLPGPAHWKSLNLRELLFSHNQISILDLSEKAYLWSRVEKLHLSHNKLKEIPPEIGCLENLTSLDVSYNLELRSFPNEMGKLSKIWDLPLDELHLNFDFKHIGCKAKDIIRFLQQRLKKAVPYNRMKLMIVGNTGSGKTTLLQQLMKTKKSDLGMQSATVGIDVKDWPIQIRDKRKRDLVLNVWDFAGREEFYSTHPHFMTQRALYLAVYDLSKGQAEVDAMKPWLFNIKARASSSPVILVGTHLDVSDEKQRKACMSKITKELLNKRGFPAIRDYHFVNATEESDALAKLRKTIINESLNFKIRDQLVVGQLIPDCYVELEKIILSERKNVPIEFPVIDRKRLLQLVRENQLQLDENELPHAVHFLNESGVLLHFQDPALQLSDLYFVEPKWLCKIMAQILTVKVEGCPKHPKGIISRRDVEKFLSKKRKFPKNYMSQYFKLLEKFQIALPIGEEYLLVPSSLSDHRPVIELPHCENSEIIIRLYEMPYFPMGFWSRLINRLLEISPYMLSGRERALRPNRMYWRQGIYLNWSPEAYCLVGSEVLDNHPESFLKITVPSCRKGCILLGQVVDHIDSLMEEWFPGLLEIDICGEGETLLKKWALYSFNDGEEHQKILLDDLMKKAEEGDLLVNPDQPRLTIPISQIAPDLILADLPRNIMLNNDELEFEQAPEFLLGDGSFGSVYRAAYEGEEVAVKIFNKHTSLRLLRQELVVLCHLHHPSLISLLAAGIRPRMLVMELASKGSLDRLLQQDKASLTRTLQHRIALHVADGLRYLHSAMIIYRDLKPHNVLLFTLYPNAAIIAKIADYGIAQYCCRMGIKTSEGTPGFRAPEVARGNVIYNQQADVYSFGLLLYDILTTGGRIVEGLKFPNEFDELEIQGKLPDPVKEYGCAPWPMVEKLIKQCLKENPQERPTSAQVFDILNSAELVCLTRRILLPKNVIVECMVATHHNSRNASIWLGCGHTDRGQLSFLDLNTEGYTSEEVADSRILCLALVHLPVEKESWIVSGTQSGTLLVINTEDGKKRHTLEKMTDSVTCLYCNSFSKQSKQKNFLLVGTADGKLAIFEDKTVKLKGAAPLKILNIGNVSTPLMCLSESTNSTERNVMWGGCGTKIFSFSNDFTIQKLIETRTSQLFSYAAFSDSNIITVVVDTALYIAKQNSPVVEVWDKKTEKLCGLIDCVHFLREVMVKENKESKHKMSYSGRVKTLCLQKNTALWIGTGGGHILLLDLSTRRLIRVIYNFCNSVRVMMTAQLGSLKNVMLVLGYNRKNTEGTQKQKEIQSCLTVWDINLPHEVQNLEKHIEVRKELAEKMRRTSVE
T2 sequence (Q5S007 970-2527 G2019S limits assumed): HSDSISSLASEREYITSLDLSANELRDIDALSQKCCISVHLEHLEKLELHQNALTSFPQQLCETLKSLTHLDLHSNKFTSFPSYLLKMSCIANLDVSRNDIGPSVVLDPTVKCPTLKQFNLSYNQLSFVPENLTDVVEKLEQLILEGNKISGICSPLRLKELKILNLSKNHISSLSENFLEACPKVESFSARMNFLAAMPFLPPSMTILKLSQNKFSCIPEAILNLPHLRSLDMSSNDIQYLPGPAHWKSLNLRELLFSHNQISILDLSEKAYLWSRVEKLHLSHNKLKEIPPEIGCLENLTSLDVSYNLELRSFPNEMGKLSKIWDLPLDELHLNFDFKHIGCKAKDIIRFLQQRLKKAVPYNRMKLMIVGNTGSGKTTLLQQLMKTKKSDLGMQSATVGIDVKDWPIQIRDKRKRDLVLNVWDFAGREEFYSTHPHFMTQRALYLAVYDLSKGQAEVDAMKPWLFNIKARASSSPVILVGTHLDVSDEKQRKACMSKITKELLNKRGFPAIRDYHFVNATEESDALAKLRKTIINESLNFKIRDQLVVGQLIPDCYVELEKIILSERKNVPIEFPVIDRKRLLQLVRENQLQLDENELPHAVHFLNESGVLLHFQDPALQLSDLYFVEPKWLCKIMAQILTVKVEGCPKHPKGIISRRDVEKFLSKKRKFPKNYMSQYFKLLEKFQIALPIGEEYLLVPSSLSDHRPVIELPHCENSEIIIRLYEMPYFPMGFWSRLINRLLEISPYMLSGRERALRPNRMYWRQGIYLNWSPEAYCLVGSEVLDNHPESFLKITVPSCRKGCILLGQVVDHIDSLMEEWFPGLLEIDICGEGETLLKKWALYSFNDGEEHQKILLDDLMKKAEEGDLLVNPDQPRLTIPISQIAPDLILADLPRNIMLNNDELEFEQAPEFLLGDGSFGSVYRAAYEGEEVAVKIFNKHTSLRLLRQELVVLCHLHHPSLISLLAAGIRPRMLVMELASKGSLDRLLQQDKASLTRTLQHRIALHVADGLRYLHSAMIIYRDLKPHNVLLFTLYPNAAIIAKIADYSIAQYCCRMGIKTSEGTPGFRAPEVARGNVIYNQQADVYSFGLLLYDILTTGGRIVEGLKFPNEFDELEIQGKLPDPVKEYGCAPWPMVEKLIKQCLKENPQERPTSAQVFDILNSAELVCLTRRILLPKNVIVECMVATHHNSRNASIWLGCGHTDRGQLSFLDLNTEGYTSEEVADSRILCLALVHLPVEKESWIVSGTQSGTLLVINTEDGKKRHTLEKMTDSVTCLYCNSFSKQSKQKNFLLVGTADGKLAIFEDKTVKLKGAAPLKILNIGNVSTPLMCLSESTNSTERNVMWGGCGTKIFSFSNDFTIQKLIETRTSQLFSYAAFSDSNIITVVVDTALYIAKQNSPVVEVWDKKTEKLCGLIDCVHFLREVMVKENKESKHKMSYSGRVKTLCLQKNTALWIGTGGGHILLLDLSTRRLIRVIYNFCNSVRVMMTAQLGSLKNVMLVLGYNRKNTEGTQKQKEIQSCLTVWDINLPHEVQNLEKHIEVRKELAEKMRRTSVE

On to `CC1=C(C(=O)Nc2ccc3[nH]nc(-c4ccnc(N5CCOCC5)c4)c3c2)[C@H](C)n2nnnc2N1C` (single isomer, unassigned) [Example 24b], for which the IC50 in assay [1] and in assay [2] was ≤ 100 nM throughout.
On to `CC1=C(C(=O)Nc2ccc3[nH]ncc3c2F)Cn2nnnc2N1C` [Example 14, N-(4-fluoro-1H-indazol-5-yl)-4,5-dimethyl-4,7-dihydrotetrazolo[1,5-a]pyrimidine-6-carboxamide], for which the IC50 fell in the range of 1000 to 10000 nM in assay [1] and 100 to 1000 nM in assay [2].
The matching figures for `CC1=C(C(=O)Nc2ccc3[nH]nc(-c4ccnc(N5CCOCC5)c4)c3c2)[C@@H](C)n2nnnc2N1C` (single isomer, unassigned) [Example 24a]: ≤ 100 nM and ≤ 100 nM.
For `COc1cc2n[nH]cc2cc1NC(=O)C1=C(C)N(C)c2nnnn2C1` [Example 17, N-(6-methoxy-2H-indazol-5-yl)-4,5-dimethyl-4,7-dihydrotetrazolo[1,5-a]pyrimidine-6-carboxamide], the concentration for half-maximal inhibition (IC50) was > 10000 nM in assay [1] and 1000 to 10000 nM in assay [2].
The matching figures for `CC1=C(C(=O)Nc2ccc3[nH]c(=O)oc3c2)Cn2nnnc2N1C` [Example 30, 4,5-dimethyl-N-(2-oxo-2,3-dihydrobenzo[d]oxazol-6-yl)-4,7-dihydrotetrazolo[1,5-a]pyrimidine-6-carboxamide]: > 10000 nM and 1000 to 10000 nM.
With `CC1=C(C(=O)Nc2cc3c[nH]nc3cc2F)Cn2nnnc2N1C` [Example 19, N-(6-fluoro-2H-indazol-5-yl)-4,5-dimethyl-4,7-dihydrotetrazolo[1,5-a]pyrimidine-6-carboxamide], the IC50 in assay [1] and in assay [2] was 100 to 1000 nM throughout.
Consider `CC1=C(C(=O)Nc2ccc3cn[nH]c3c2)Cn2nnnc2N1C` [Example 3, N-(1H-indazol-6-yl)-4,5-dimethyl-4H,7H-[1,2,3,4]tetrazolo[1,5-a]pyrimidine-6-carboxamide], for which the IC50 in assay [1] and in assay [2] was 1000 to 10000 nM in each case.
As to `CCC1C(C(=O)Nc2ccc3[nH]ncc3c2)=C(C)N(C)c2nnnn21` (single isomer, unassigned) [Example 8b], the IC50 in assay [1] is 100 to 1000 nM; in assay [2], ≤ 100 nM.
The matching figures for `CC1=C(C(=O)Nc2ccc3[nH]nc(Br)c3c2)Cn2nnnc2N1C` [Example 10, N-(3-Bromo-1H-indazol-5-yl)-4,5-dimethyl-4,7-dihydrotetrazolo[1,5-a]pyrimidine-6-carboxamide]: ≤ 100 nM and ≤ 100 nM.
The corresponding values for `CC1=C(C(=O)Nc2ccc3n[nH]c(NC(=O)Cc4ccc(N(C)C)cc4)c3c2)Cn2nnnc2N1C` [Example 52, N-(3-(2-(4-(Dimethylamino)phenyl)acetamido)-2H-indazol-5-yl)-4,5-dimethyl-4,7-dihydrotetrazolo[1,5-a]pyrimidine-6-carboxamide] are 1000 to 10000 nM and 100 to 1000 nM.
The matching figures for `CC1=C(C(=O)Nc2ccc3[nH]nc(-c4ccc(S(N)(=O)=O)cc4)c3c2)Cn2nnnc2N1C` [Example 11, 4,5-Dimethyl-N-(3-(4-sulfamoylphenyl)-1H-indazol-5-yl)-4,7-dihydrotetrazolo[1,5-a]pyrimidine-6-carboxamide]: ≤ 100 nM and ≤ 100 nM.
`CC1=C(C(=O)Nc2ccc3[nH]ncc3c2)Cn2nnnc2N1c1ccccc1` [Example 13, N-(1H-indazol-5-yl)-5-methyl-4-phenyl-4,7-dihydrotetrazolo[1,5-a]pyrimidine-6-carboxamide]: the IC50 in assay [1] and in assay [2] was ≤ 100 nM in each case.
Regarding `CC1=C(C(=O)Nc2ccc3[nH]nc(C)c3c2)C(C)(C)n2nnnc2N1C` [Example 60, 4,5,7,7-Tetramethyl-N-(3-methyl-2H-indazol-5-yl)-4,7-dihydrotetrazolo[1,5-a]pyrimidine-6-carboxamide], the IC50 is 100 to 1000 nM in assay [1] and ≤ 100 nM in assay [2].
The matching figures for `CC1=C(C(=O)Nc2ccc3[nH]nc(C(N)=O)c3c2)Cn2nnnc2N1C` [Example 18, N-(3-carbamoyl-2H-indazol-5-yl)-4,5-dimethyl-4,7-dihydrotetrazolo[1,5-a]pyrimidine-6-carboxamide]: 100 to 1000 nM and ≤ 100 nM.
The matching figures for `CC1=C(C(=S)Nc2ccc3[nH]ncc3c2)Cn2nnnc2N1C` [Example 15, N-(1H-indazol-5-yl)-4,5-dimethyl-4,7-dihydrotetrazolo[1,5-a]pyrimidine-6-carbothioamide]: 100 to 1000 nM and ≤ 100 nM.
